Data set [1] can be described thus: H+/Na+ transport assay of bead-derived peptides (one-point).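 Further: relative to parent gramicidin A activity set to 1.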 In kind it is biochemical. Details: key: relative activity; mean of two control wells = 1.00. The following applies: bead-derived peptide solution, EYPC/EYPG LUVs. A digest of the protocol:
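Miniaturized 96-well format. LUVs with entrapped pyranine (1.0 mM) were exposed to peptide for 30 min at RT. Intensities were expressed relative to full lysis by Triton X-100 and no treatment, with control-well mean = 1.00.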

The conditions of data set [2]: cell viability/%. A digest of the protocol: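 P388 cells at 1 × 10^4 cells/mL (final) were exposed to library peptides (stocks diluted 250-fold in RPMI1640/10% FBS) for 92 h at 37 °C, 5% CO2. Viable cells were counted by WST-1/1-methoxy PMS (4 h), absorbance 415 nm, and expressed as cell viability (%).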
For data set [3], the system named is Streptococcus pyogenes SSI-9. As to the kind of experiment: Antibacterial activity assay of bead-derived peptides (three concentrations). Format: cell-based. Further details: key: +++: inhibition by the 640-fold diluted peptide solution; ++: inhibition by the 160-fold diluted solution; +: inhibition by the 40-fold diluted solution; -: no inhibition. The following applies: S. pyogenes, bead-derived peptide solution, three concentrations. A digest of the protocol:
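Undiluted, 4-fold and 16-fold DMSO-diluted peptide stocks; S. pyogenes SSI-9, 2 × 10^5 CFU, cation-adjusted MHB (50 mg/L Ca2+, 25 mg/L Mg2+) + 5% laked horse blood; 37 °C, 18 h; readout = cell pellet visible or not.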

Consider twelve molecules from publication PMC7531004, “Discovery of gramicidin A analogues with altered activities by multidimensional screening of a one-bead-one-compound library” (Nature Communications, 2020).

Where a SMILES comes first, the peptide text is derived from it. [ ]: non-standard residue; d: D form. The star is where a group is joined. NHCH2CH2OH = OCCN*; For = O=C*

In the case of `CC(C)C[C@@H](NC(=O)[C@H](C)NC(=O)CNC(=O)[C@@H](NC=O)C(C)C)C(=O)N[C@@H](C)C(=O)N[C@@H](C(=O)N[C@H](C(=O)N[C@@H](C(=O)N[C@@H](Cc1c[nH]c2ccccc12)C(=O)N[C@H](CC(C)C)C(=O)N[C@@H](Cc1c[nH]c2ccccc12)C(=O)N[C@@H](C(=O)N[C@@H](Cc1c[nH]c2ccccc12)C(=O)N[C@H](CC(C)C)C(=O)N[C@@H](Cc1c[nH]c2ccccc12)C(=O)NCCO)C(C)C)C(C)C)C(C)C)[C@H](C)O` [compound 5555] (For-VGA[dL]A[dT]V[dV]W[dL]W[dV]W[dL]W-NHCH2CH2OH), the “H+/Na+ transport activity normalized against the value of 1 (1.00)” value (“H+/Na+ transport activity normalized” below) in data set [1] is recorded as 1.22. For the same molecule, the viability in data set [2] turned out to be 100%. Further, the antibacterial activity result in data set [3] is listed as “-”.
For the molecule `CC(C)C[C@@H](NC(=O)[C@H](C)NC(=O)CNC(=O)[C@@H](NC=O)C(C)C)C(=O)N[C@@H](C)C(=O)N[C@H](CC(C)C)C(=O)N[C@H](C(=O)N[C@H](CC(C)C)C(=O)N[C@@H](Cc1c[nH]c2ccccc12)C(=O)N[C@@H](C(=O)N[C@@H](Cc1c[nH]c2ccccc12)C(=O)N[C@H](CC(C)C)C(=O)N[C@@H](Cc1c[nH]c2ccccc12)C(=O)N[C@@H](C(=O)N[C@@H](Cc1c[nH]c2ccccc12)C(=O)NCCO)C(C)C)[C@H](C)O)C(C)C` [compound 5561] (For-VGA[dL]A[dL]V[dL]W[dT]W[dL]W[dV]W-NHCH2CH2OH), in data set [1], the “H+/Na+ transport activity normalized” value is 1.05. The viability in data set [2] was 100%. In data set [3], the antibacterial activity entry is “-”.
With `CC(C)C[C@@H](NC(=O)[C@H](Cc1c[nH]c2ccccc12)NC(=O)[C@@H](CC(C)C)NC(=O)[C@@H](NC(=O)[C@H](NC(=O)[C@H](C)NC(=O)[C@H](NC(=O)[C@H](C)NC(=O)CNC(=O)[C@@H](NC=O)C(C)C)[C@H](C)O)C(C)C)C(C)C)C(=O)N[C@@H](Cc1c[nH]c2ccccc12)C(=O)N[C@@H](C(=O)N[C@@H](Cc1c[nH]c2ccccc12)C(=O)N[C@@H](C(=O)N[C@@H](Cc1c[nH]c2ccccc12)C(=O)NCCO)C(C)C)C(C)C` [compound 5563] (For-VGA[dT]A[dV]V[dL]W[dL]W[dV]W[dV]W-NHCH2CH2OH), the “H+/Na+ transport activity normalized” value in data set [1] came out at 1.08. In data set [2], this molecule had a viability of 100%. For the same molecule, in data set [3], the antibacterial activity entry is given as “-”.
The like results for `CC(C)C[C@@H](NC(=O)[C@H](C)NC(=O)[C@H](NC(=O)[C@H](C)NC(=O)CNC(=O)[C@@H](NC=O)C(C)C)C(C)C)C(=O)N[C@H](C(=O)N[C@H](CC(C)C)C(=O)N[C@@H](Cc1c[nH]c2ccccc12)C(=O)N[C@@H](C(=O)N[C@@H](Cc1c[nH]c2ccccc12)C(=O)N[C@@H](C(=O)N[C@@H](Cc1c[nH]c2ccccc12)C(=O)N[C@H](CC(C)C)C(=O)N[C@@H](Cc1c[nH]c2ccccc12)C(=O)NCCO)C(C)C)[C@H](C)O)C(C)C` [compound 5572] (For-VGA[dV]A[dL]V[dL]W[dT]W[dV]W[dL]W-NHCH2CH2OH) were, in that order, 1.24, 100% and “+”.
In the same order, the values of `CC(C)C[C@@H](NC(=O)[C@H](C)NC(=O)CNC(=O)[C@@H](NC=O)C(C)C)C(=O)N[C@@H](C)C(=O)N[C@@H](C(=O)N[C@H](C(=O)N[C@@H](C(=O)N[C@@H](Cc1c[nH]c2ccccc12)C(=O)N[C@H](CC(C)C)C(=O)N[C@@H](Cc1c[nH]c2ccccc12)C(=O)N[C@@H](C(=O)N[C@@H](Cc1c[nH]c2ccccc12)C(=O)N[C@@H](C(=O)N[C@@H](Cc1c[nH]c2ccccc12)C(=O)NCCO)C(C)C)C(C)C)C(C)C)C(C)C)C(C)C` [compound 5587] (For-VGA[dL]A[dV]V[dV]W[dL]W[dV]W[dV]W-NHCH2CH2OH) are 1.23, 85.3% and “++”.
The like results for `CC(C)C[C@@H](NC(=O)[C@H](C)NC(=O)[C@H](NC(=O)[C@H](C)NC(=O)CNC(=O)[C@@H](NC=O)C(C)C)[C@H](C)O)C(=O)N[C@H](C(=O)N[C@H](CC(C)C)C(=O)N[C@@H](Cc1c[nH]c2ccccc12)C(=O)N[C@H](CC(C)C)C(=O)N[C@@H](Cc1c[nH]c2ccccc12)C(=O)N[C@H](CC(C)C)C(=O)N[C@@H](Cc1c[nH]c2ccccc12)C(=O)N[C@H](CC(C)C)C(=O)N[C@@H](Cc1c[nH]c2ccccc12)C(=O)NCCO)C(C)C` [compound 5618] (For-VGA[dT]A[dL]V[dL]W[dL]W[dL]W[dL]W-NHCH2CH2OH) were, in that order, 1.13, 85.1% and “-”.
In the case of `CC(C)C[C@@H](NC(=O)[C@H](C)NC(=O)CNC(=O)[C@@H](NC=O)C(C)C)C(=O)N[C@@H](C)C(=O)N[C@@H](C(=O)N[C@H](C(=O)N[C@@H](C(=O)N[C@@H](Cc1c[nH]c2ccccc12)C(=O)N[C@@H](C(=O)N[C@@H](Cc1c[nH]c2ccccc12)C(=O)N[C@H](CC(C)C)C(=O)N[C@@H](Cc1c[nH]c2ccccc12)C(=O)N[C@@H](C(=O)N[C@@H](Cc1c[nH]c2ccccc12)C(=O)NCCO)C(C)C)[C@H](C)O)C(C)C)C(C)C)C(C)C` [compound 5657] (For-VGA[dL]A[dV]V[dV]W[dT]W[dL]W[dV]W-NHCH2CH2OH), in data set [1], the “H+/Na+ transport activity normalized” value is 1.09. In data set [2], the viability was 81.3%. In addition, in data set [3], the antibacterial activity entry was “-”.
The like results for `CC(C)C[C@@H](NC(=O)[C@H](C)NC(=O)CNC(=O)[C@@H](NC=O)C(C)C)C(=O)N[C@@H](C)C(=O)N[C@H](CC(C)C)C(=O)N[C@H](C(=O)N[C@H](CC(C)C)C(=O)N[C@@H](Cc1c[nH]c2ccccc12)C(=O)N[C@@H](C(=O)N[C@@H](Cc1c[nH]c2ccccc12)C(=O)N[C@@H](C(=O)N[C@@H](Cc1c[nH]c2ccccc12)C(=O)N[C@H](CC(C)C)C(=O)N[C@@H](Cc1c[nH]c2ccccc12)C(=O)NCCO)[C@H](C)O)C(C)C)C(C)C` [compound 5736] (For-VGA[dL]A[dL]V[dL]W[dV]W[dT]W[dL]W-NHCH2CH2OH) were, in that order, 1.11, 95.5% and “-”.
The like results for `CC(C)C[C@@H](NC(=O)[C@H](Cc1c[nH]c2ccccc12)NC(=O)[C@H](NC(=O)[C@@H](NC(=O)[C@H](NC(=O)[C@H](C)NC(=O)[C@H](NC(=O)[C@H](C)NC(=O)CNC(=O)[C@@H](NC=O)C(C)C)C(C)C)C(C)C)C(C)C)C(C)C)C(=O)N[C@@H](Cc1c[nH]c2ccccc12)C(=O)N[C@H](CC(C)C)C(=O)N[C@@H](Cc1c[nH]c2ccccc12)C(=O)N[C@@H](C(=O)N[C@@H](Cc1c[nH]c2ccccc12)C(=O)NCCO)C(C)C` [compound 5742] (For-VGA[dV]A[dV]V[dV]W[dL]W[dL]W[dV]W-NHCH2CH2OH) were, in that order, 1.16, 11.1% and “++”.
The like results for `CC(C)C[C@@H](NC(=O)[C@H](C)NC(=O)CNC(=O)[C@@H](NC=O)C(C)C)C(=O)N[C@@H](C)C(=O)N[C@@H](C(=O)N[C@H](C(=O)N[C@@H](C(=O)N[C@@H](Cc1c[nH]c2ccccc12)C(=O)N[C@@H](C(=O)N[C@@H](Cc1c[nH]c2ccccc12)C(=O)N[C@H](CC(C)C)C(=O)N[C@@H](Cc1c[nH]c2ccccc12)C(=O)N[C@@H](C(=O)N[C@@H](Cc1c[nH]c2ccccc12)C(=O)NCCO)C(C)C)[C@H](C)O)[C@H](C)O)C(C)C)C(C)C` [compound 5747] (For-VGA[dL]A[dV]V[dT]W[dT]W[dL]W[dV]W-NHCH2CH2OH) were, in that order, 1.09, 100% and “-”.
`CNC(=O)C[C@@H](NC(=O)[C@H](Cc1c[nH]c2ccccc12)NC(=O)[C@H](NC(=O)[C@@H](NC(=O)[C@@H](CC(C)C)NC(=O)[C@H](C)NC(=O)[C@H](NC(=O)[C@H](C)NC(=O)CNC(=O)[C@@H](NC=O)C(C)C)C(C)C)C(C)C)C(C)C)C(=O)N[C@@H](Cc1c[nH]c2ccccc12)C(=O)N[C@H](CC(C)C)C(=O)N[C@@H](Cc1c[nH]c2ccccc12)C(=O)N[C@H](CC(C)C)C(=O)N[C@@H](Cc1c[nH]c2ccccc12)C(=O)NCCO` [compound 5838] (For-VGA[dV]A[dL]V[dV]W[dD](NHMe)W[dL]W[dL]W-NHCH2CH2OH): in data set [1], the “H+/Na+ transport activity normalized” value is 1.12. In data set [2], this molecule displayed a viability of 100%. The antibacterial activity result in data set [3] is listed as “-”.
The like results for `CNC(=O)C[C@@H](NC(=O)[C@@H](NC(=O)[C@@H](CC(C)C)NC(=O)[C@H](C)NC(=O)[C@H](NC(=O)[C@H](C)NC(=O)CNC(=O)[C@@H](NC=O)C(C)C)C(C)C)C(C)C)C(=O)N[C@@H](Cc1c[nH]c2ccccc12)C(=O)N[C@@H](C(=O)N[C@@H](Cc1c[nH]c2ccccc12)C(=O)N[C@@H](C(=O)N[C@@H](Cc1c[nH]c2ccccc12)C(=O)N[C@H](CC(C)C)C(=O)N[C@@H](Cc1c[nH]c2ccccc12)C(=O)NCCO)C(C)C)C(C)C` [compound 5991] (For-VGA[dV]A[dL]V[dD](NHMe)W[dV]W[dV]W[dL]W-NHCH2CH2OH) were, in that order, 1.00, 94.7% and “-”.

Broadly, the viability is a read-out of living cells in per cent, often relative to untreated cells.
